Converted amounts (≈) assume the structure as drawn. Where two headings read alike, the source gives them in different places.
Legend:
[1] = test system: WiDr (human colorectal cancer); test: In vitro anticancer effect (MTT), WiDr cell line; format: cell-based; details: WiDr cells, 72 hours, read-out: IC50 (50% cell growth-inhibitory concentration)
Protocol: (§1) In Vitro anticancer effects on KB (human nasopharynx carcinoma), Colon 38 (mouse colon cancer), and WiDr (human colorectal cancer) cell lines
(§2) Each of KB, Colon 38, and WiDr cell lines were respectively cultured using 10% fetal calf serum-supplemented D-MEM medium (Nissui Pharmaceutical). Each monolayer of cells was exfoliated with a 50:50 (v/v) mixture of 0.25% trypsin and 0.02% ethylenediaminetetracetic acid and after inactivation of trypsin, the cells were collected by centrifuging at 800 rpm for 3 minutes and suspended in the same medium as above. Using a hemocytometer, the number of the cells in the suspension were counted. The suspension was diluted with the medium to 5×10^4 cells/ml and distributed to a 96-well flat-bottomed plate, 100 μl per well.
(§3) The test drug was first dissolved in dimethyl sulfoxide at a concentration of 2 mg/ml and diluted with the above medium to 20 μg/ml. Using this solution for the highest concentration, a doubling dilution series was prepared and 100 μl of each dilution was added to the above cell suspension.
(§4) The plate was then incubated under 5% CO2 -air at 37° C. for 72 hours. Then, a 5 mg/ml solution of MTT [3-(4,5-dimethylthiazol-2-yl)-2,5-diphenyltetrazolium bromide] was added to the plate, 30 μl per well and the reaction was carried out under 5% CO2 -air at 37° C. for 4 hours. After the reaction, the solution in each well was aspirated off and 100 μl/well of dimethyl sulfoxide was added. After 5 minutes of shaking, the absorbance at 540 nm was measured with a Multiscan (Titertek) and the 50% cell growth-inhibitory concentration (IC50) was calculated.

[2] = test system: KB (human nasopharynx carcinoma); test: In vitro anticancer effect (MTT), KB cell line; format: cell-based; details: KB cells, 72 hours, read-out: IC50 (50% cell growth-inhibitory concentration)
Protocol: as §1, §2, §3, §4

[3] = test system: Colon 38 (mouse colon cancer); test: In vitro anticancer effect (MTT), Colon 38 cell line; format: cell-based; details: Colon 38 cells, 72 hours, read-out: IC50 (50% cell growth-inhibitory concentration)
Protocol: as §1, §2, §3, §4

[4] = test system: mouse monocytic leukemia P-388 cell line; test: In vivo anticancer activity against mouse monocytic leukemia P-388 cell line; set-up: species or system mouse (CDF1); details: oral, twice (following day and after 5 days)
Protocol: In vivo anticancer activity against mouse monocytic leukemia P-388 cell line
A suspension of tumor cells was transplanted intraperitoneally in CDF1 mice in a dose of 10^6 cells/animal. On the following dav and after 5 days, or twice, the test drug suspended in 0.5% methylcellulose solution was administered orally. The experiment was performed in 8-12 mice for each control group and 6 mice for each drug treatment group.
For evaluation, the median survival time in days was determined for each drug treatment group (T) and control group (C) and T/C (%) was calculated.

[5] = test system: microtubule protein; test: Microtubule polymerization-inhibitory activity; format: biochemical; details: porcine brain microtubule protein, 37° C., pH 6.8, 350 nm; read-out: 50% inhibitory concentration against microtubule protein polymerization
Protocol: Microtubule polymerization-inhibitory activity Microtubule polymerization-inhibitory activity
A microtubule protein (a mixed solution of microtubule protein and microtubule-bound protein) was purified from a crude porcine brain extract according to the method of Williams et al. [Method in Enzymology, 85, 36, 1982] to isolate and the microtubule polymerization inhibitory activity of the compound of the invention was studied. The microtubule protein solution was diluted to 4 mg/ml as purified microtubule protein with GTP (guanosine-5'-triphosphate)-added reaction buffer (pH 6.8) {100 mM MES [2-(N-morpholinoethanesulfonic acid], 0.5 mM MgCl2 -1 mM EGTA (ethylene glycol bis(β-aminoethyl ether)-N,N,N',N'-tetracetic acid), 1 mM GTP} under ice-cooling and after degassing in ice, the test drug was added. Using a spectrophotometer maintained at 37° C., the absorbance of the system at 350 nm was measured at 2-minute intervals for 30 minutes to construct a polymerization curve and the concentration corresponding to 50% inhibition of microtubule protein polymerization was calculated. As the test drug, the compound of Example 3A was used.

[6] = test system: WiDr tumor cells transplanted in nude mice; test: Growth inhibitory activity against WiDr tumor cells transplanted in nude mice; format: in vivo; details: oral; for Growth inhibition rate at day 16 after initiation of administration: once daily
Text: Growth inhibitory activity against WiDr tumor cells transplanted in nude mice The tumor subcutaneously subcultured in nude mice (BALB/c nu/nu, male) aged 5-7 weeks were excised. After removal of the skin and connective tissue around the tumor, the tumor mass was split to remove the central necrotic tissue and, then, cut into cubes with a 2 mm side. One cube was loaded into a grafting needle and transplanted subcutaneously in the right thoracic region of the nude mouse. The major and minor diameters of the tumor were measured with calipers and the tumor volume was calculated by means of Equation 1. Starting when the volume had reached about 100 mm^3, the mice were divided into 6 individuals per group and the test drug suspended in 0.5% methylcellulose solution was administered orally by gastric gavage once daily.
Volume=1/2×major diameter×(minor diameter)^2Equation 1
The tumor volume was determined by the above method at predetermined intervals. From the tumor volume thus calculated, the growth rate was calculated by means of Equation 2. Then, using Equation 3, the growth inhibition rate in each drug treatment group relative to the control group was calculated.
Growth rate=tumor volume at day n/tumor volume at initiation of administration Equation 2
Growth inhibition rate (%)=(1-growth rate in drug treatment group/growth rate in control group)×100 Equation 3
As the test compound, the compound of Example 3A was used.

[7] = test system: Colon-26 (mouse colon cancer) cells transplanted in mice; format: in vivo, mouse (BALB/c, male); details: oral, once daily for 8 days
Protocol: Anticancer activity against Colon-26 (mouse colon cancer) cells transplanted in mice
Using an injection syringe, Colon-26 cells cultured in vitro were transplanted subcutaneously in a dose of 5×10^5 /animal in the right thoracic region of BALB/c mice (5 weeks old, male). As in Test Example 3, the mice were divided into groups of 6 when the tumor volume had reached about 150 mm^3. Starting the following day, the test drug suspended in 0.5% methylcellulose solution was administered orally by gastric gavage once daily for 8 days. The tumor volume was measured at a predetermined interval by the same method as in Test Example 3 and the tumor growth inhibition rate in each drug treatment group relative to the control group was calculated. As the test compound, the compound of Example 3A was used.

[8] = Acute toxicity, single oral administration; details: mouse, in vivo, mortality after 2 weeks, probit method
Protocol: Male 5-week-old CDF1 mice were used. After the compound of Example 3B or 34 was orally administered once, the mortality rate was investigated after 2 weeks and the LD50 value was calculated by the probit method. […] The high safety of the compound of the invention is obvious.

[9] = test system: tubulin; details: J. Med. Chem. 1991, 34, 2579; cited from earlier work

With `COc1ccc(S(=O)(=O)Nc2ccccc2/C=C/c2cccnc2)cc1` [Example 2 (trans), 3-[2-[2-[[(p-Methoxyphenyl)sulfonyl]amino]phenyl]ethenyl]pyridine] the IC50 [1] was 0.09 µg/mL (≈ 0.246 µM), the IC50 [2] was 0.1 µg/mL (≈ 0.273 µM) and the IC50 [3] was 0.15 µg/mL (≈ 0.409 µM).

With `COc1ccc(S(=O)(=O)Nc2ccccc2/C=C\c2cccnc2)cc1` [Example 2 (cis), 3-[2-[2-[[(p-Methoxyphenyl)sulfonyl]amino]phenyl]ethenyl]pyridine] the IC50 [1] was 4.81 µg/mL (≈ 13.1 µM), the IC50 [2] was 4.86 µg/mL (≈ 13.3 µM) and the IC50 [3] was 6.48 µg/mL (≈ 17.7 µM).

With `COc1ccc(S(=O)(=O)N(CCO)c2ccccc2/C=C/c2cc[n+]([O-])cc2)cc1` [Example 49, (E)-4-[2-[2-[N-(2-Hydroxyethyl)-N-[(p-methoxyphenyl)sulfonyl]amino]phenyl]ethenyl]pyridine 1-oxide] the “T/C (median survival time, treated/control)” value ([4]; 100 mg/kg) was 185% and the “T/C (median survival time, treated/control)” value ([4]; 200 mg/kg) was 220%.

Molecule `COc1ccc(S(=O)(=O)Nc2ccccc2/C=C/c2ccncc2)cc1` [Example 3A, (E)-4-[2-[2-[[(p-Methoxyphenyl)sulfonyl]amino]phenyl]ethenyl]pyridine] has an IC50 [1] of 0.0025 µg/mL (≈ 0.00682 µM), an IC50 [5] of 11.2 µM and an IC50 [2] of 0.0026 µg/mL (≈ 0.0071 µM). For the same molecule, the “Growth inhibition rate at day 16 after initiation of administration” value ([6]; 10 mg/kg/day) was 16.4%, the “Growth inhibition rate at day 16 after initiation of administration” value ([6]; 30 mg/kg/day) was 57.0% and the “death by the end of the administration period” value ([6]; 100 mg/kg, once daily for 14 days) was “no death occurred”. The “Growth inhibition rate at day 16 after initiation of administration” value ([6]; 100 mg/kg/day) was 81.7%, the IC50 [3] was 0.0031 µg/mL (≈ 0.00846 µM) and the “Growth inhibition rate at day 13 after initiation of administration” value ([7]; 25 mg/kg/day) was 44.8%. The “Growth inhibition rate at day 13 after initiation of administration” value ([7]; 50 mg/kg/day) was 95.3%.

In the case of `COc1ccc(S(=O)(=O)Nc2ccccc2/C=C/c2cc[n+]([O-])cc2)cc1` [Example 20, (E)-4-[2-[2-[[(p-Methoxyphenyl)sulfonyl]amino]phenyl]ethenyl]pyridine 1-oxide], the “T/C (median survival time, treated/control)” value ([4]; 25 mg/kg) is reported as 135%, the “T/C (median survival time, treated/control)” value ([4]; 50 mg/kg) is reported as 115% and the “T/C (median survival time, treated/control)” value ([4]; 100 mg/kg) is reported as 180%. The “T/C (median survival time, treated/control)” value ([4]; 200 mg/kg) was 195%.

For `COc1ccc(S(=O)(=O)N(CCO)c2ccccc2/C=C/c2ccncc2)cc1` [Example 34, (E)-4-[2-[2-[N-(2-Hydroxyethyl)-N-[(p-methoxyphenyl)sulfonyl]amino]phenyl]ethenyl]pyridine], the LD50 at 336 h [8] was 754 mg/kg, the “T/C (median survival time, treated/control)” value ([4]; 25 mg/kg) was 105% and the “T/C (median survival time, treated/control)” value ([4]; 50 mg/kg) was 124%. The “T/C (median survival time, treated/control)” value ([4]; 100 mg/kg) was 167% and the “T/C (median survival time, treated/control)” value ([4]; 200 mg/kg) was 210%.

`COc1ccc(S(=O)(=O)Nc2ncccc2/C=C/c2ccccc2)cc1` [Example 1, (E)-2-[[(p-Methoxyphenyl)sulfonyl]amino]-3-(2-phenyl-ethenyl)pyridine] gave an IC50 [1] of 0.45 µg/mL (≈ 1.23 µM), an IC50 [2] of 0.44 µg/mL (≈ 1.2 µM) and an IC50 [3] of 0.75 µg/mL (≈ 2.05 µM).

For `COc1ccc(S(=O)(=O)Nc2ccccc2/C=C/c2ccccn2)cc1` [Example 4, (E)-2-[2-[2-[[(p-Methoxyphenyl)sulfonyl]amino]phenyl]ethenyl]pyridine], the IC50 [1] was 0.16 µg/mL (≈ 0.437 µM), the IC50 [2] was 0.12 µg/mL (≈ 0.327 µM) and the IC50 [3] was 0.16 µg/mL (≈ 0.437 µM).

In the case of `COc1ccc(S(=O)(=O)N(C(C)=O)c2ccccc2/C=C/c2cc[n+]([O-])cc2)cc1` [Example 57, (E)-4-[2-[2-[N-Acetyl-N-[(p-methoxyphenyl)sulfonyl]amino]phenyl]ethenyl]pyridine 1-oxide], the “T/C (median survival time, treated/control)” value ([4]; 25 mg/kg) is reported as 115%, the “T/C (median survival time, treated/control)” value ([4]; 50 mg/kg) is reported as 160% and the “T/C (median survival time, treated/control)” value ([4]; 100 mg/kg) is reported as 215%. For the same molecule, the “T/C (median survival time, treated/control)” value ([4]; 200 mg/kg) was 250%.

In the case of `COc1ccc(S(=O)(=O)Nc2ccccc2/C=C/c2ccncc2)cc1.Cl` [Example 3B, (E)-4-[2-[2-[[(p-Methoxyphenyl)sulfonyl]amino]phenyl]ethenyl]pyridine Hydrochloride], the LD50 at 336 h [8] is reported as 510 mg/kg, the “T/C (median survival time, treated/control)” value ([4]; 25 mg/kg) is reported as 116% and the “T/C (median survival time, treated/control)” value ([4]; 50 mg/kg) is reported as 126%. The “T/C (median survival time, treated/control)” value ([4]; 100 mg/kg) was 168% and the “T/C (median survival time, treated/control)” value ([4]; 200 mg/kg) was 221%.

In the case of `COc1ccc(/C=C\c2cc(OC)c(OC)c(OC)c2)cc1` [(Z)-3,4,5-trimethoxy-4'-methoxystilbene], the tubulin polymerization-inhibitory activity [9] is listed as “have tubulin polymerization-inhibitory activity”.
